Data: the NIST ThermoML archive (doi:10.1016/j.jct.2011.02.018)

Experiment: xn = mol fraction of the nth substance listed
Details: 101 kPa, Liquid; for viscosity: Concentric cylinders viscometry; for mass density: Vibrating tube method

COC(C)(C)C [2-methoxy-2-methylpropane] + CCCCO
Details | mass density, 293.15 K [kg/m3] | mass density, 298.15 K [kg/m3] | mass density, 303.15 K [kg/m3] | mass density, 308.15 K [kg/m3] | viscosity, 293.15 K [mPa·s] | viscosity, 298.15 K [mPa·s] | viscosity, 303.15 K [mPa·s] | viscosity, 308.15 K [mPa·s]
x1 = 0.0104 | 809.06 | 805.25 | 801.38 | 797.5 | 2.875 | 2.518 | 2.22 | 1.958
x1 = 0.0243 | 808.13 | 804.31 | 800.43 | 796.52 | 2.741 | 2.41 | 2.126 | 1.882
x1 = 0.0294 | 807.77 | 803.94 | 800.06 | 796.14 | 2.696 | 2.374 | 2.094 | 1.855
x1 = 0.0396 | 807.09 | 803.24 | 799.35 | 795.41 | 2.618 | 2.298 | 2.032 | 1.8
x1 = 0.0498 | 806.41 | 802.54 | 798.63 | 794.68 | 2.522 | 2.227 | 1.973 | 1.75
x1 = 0.0601 | 805.74 | 801.84 | 797.91 | 793.95 | 2.439 | 2.156 | 1.908 | 1.697
x1 = 0.0699 | 805.07 | 801.16 | 797.21 | 793.24 | 2.366 | 2.093 | 1.857 | 1.654
x1 = 0.0804 | 804.38 | 800.44 | 796.49 | 792.5 | 2.296 | 2.028 | 1.809 | 1.612
x1 = 0.0898 | 803.72 | 799.79 | 795.81 | 791.81 | 2.224 | 1.969 | 1.752 | 1.564
x1 = 0.1006 | 802.95 | 798.99 | 795 | 790.98 | 2.144 | 1.903 | 1.695 | 1.514
x1 = 0.1507 | 799.54 | 795.53 | 791.47 | 787.38 | 1.85 | 1.656 | 1.489 | 1.334
x1 = 0.1993 | 796.26 | 792.17 | 788.04 | 783.88 | 1.6 | 1.437 | 1.294 | 1.169
x1 = 0.2516 | 792.7 | 788.55 | 784.35 | 780.11 | 1.382 | 1.25 | 1.132 | 1.029
x1 = 0.3022 | 789.27 | 785.01 | 780.75 | 776.43 | 1.216 | 1.103 | 0.9992 | 0.9132
x1 = 0.3515 | 785.87 | 781.6 | 777.25 | 772.86 | 1.077 | 0.9815 | 0.893 | 0.8189
x1 = 0.4031 | 782.33 | 777.98 | 773.56 | 769.1 | 0.9523 | 0.8743 | 0.797 | 0.7323
x1 = 0.4497 | 779.15 | 774.73 | 770.24 | 765.7 | 0.8598 | 0.7902 | 0.7267 | 0.6743
x1 = 0.4999 | 775.69 | 771.23 | 766.66 | 762.05 | 0.7724 | 0.7125 | 0.6568 | 0.6081
x1 = 0.5485 | 772.39 | 767.84 | 763.2 | 758.52 | 0.6999 | 0.6476 | 0.5981 | 0.5512
x1 = 0.5953 | 769.2 | 764.57 | 759.86 | 755.11 | 0.6397 | 0.5937 | 0.5512 | 0.5073
x1 = 0.6445 | 765.82 | 761.14 | 756.35 | 751.52 | 0.585 | 0.5452 | 0.506 | 0.4692
x1 = 0.6999 | 762 | 757.24 | 752.37 | 747.46 | 0.53 | 0.4937 | 0.4595 | 0.4236
x1 = 0.7466 | 758.77 | 753.92 | 748.98 | 744 | 0.4912 | 0.4586 | 0.4275 | 0.395
x1 = 0.8067 | 754.66 | 749.65 | 744.63 | 739.55 | 0.4474 | 0.4167 | 0.3876 | 0.3578
x1 = 0.8404 | 752.26 | 747.22 | 742.14 | 737.01 | 0.4251 | 0.3961 | 0.3679 | 0.3465
x1 = 0.8695 | 750.22 | 745.15 | 740.03 | 734.85 | 0.408 | 0.3799 | 0.3544 | 0.3327
x1 = 0.8983 | 748.09 | 743 | 737.86 | 732.64 | 0.3889 | 0.3651 | 0.3371 | 0.3165
x1 = 0.9092 | 747.32 | 742.21 | 737.05 | 731.8 | 0.3832 | 0.3591 | 0.3333 | 0.3137
x1 = 0.9188 | 746.62 | 741.51 | 736.33 | 731.09 | 0.3778 | 0.3547 | 0.3301 | 0.3112
x1 = 0.9299 | 745.83 | 740.69 | 735.5 | 730.24 | 0.3717 | 0.3493 | 0.3249 | 0.305
x1 = 0.9398 | 745.11 | 739.96 | 734.74 | 729.47 | 0.3683 | 0.3491 | 0.329 | 0.3048
x1 = 0.9492 | 744.42 | 739.25 | 734.03 | 728.76 | 0.3654 | 0.3479 | 0.3225 | 0.3006
x1 = 0.9607 | 743.59 | 738.39 | 733.15 | 727.86 | 0.358 | 0.3391 | 0.3169 | 0.2958
x1 = 0.9697 | 742.97 | 737.75 | 732.49 | 727.18 | 0.356 | 0.331 | 0.3107 | 0.2998
x1 = 0.9796 | 742.24 | 737.01 | 731.74 | 726.41 | 0.3489 | 0.3267 | 0.3076 | 0.2964
x1 = 0.9902 | 741.47 | 736.22 | 730.94 | 725.59 | 0.3456 | 0.3214 | 0.2976 | 0.2892
